Measured values reported in PubChem BioAssay (NCI).
Several values for one entry are separate records, joined by “and”; a condition that tells them apart may be missing. Equal entries are not always repeated.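 All cell lines were grown in 96-well plates and treated with compound for 48 hours. GI50: concentration for 50% inhibition of growth. TGI denotes the concentration required for complete inhibition of growth.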

How the values were obtained:
Assay in all cases: NCI tumour cell line growth inhibition, 48 h
SNB-75 CNS = system: SNB-75 CNS
EKVX NSCLC = system: EKVX NSCLC
SK-MEL-2 melanoma = system: SK-MEL-2 melanoma
RPMI-8226 leukemia = system: RPMI-8226 leukemia
NCI-H522 lung = system: NCI-H522 lung
SF-268 CNS = system: SF-268 CNS
HCC-2998 colon = system: HCC-2998 colon
LOX IMVI melanoma = system: LOX IMVI melanoma
UACC-257 melanoma = system: UACC-257 melanoma
K-562 leukemia = system: K-562 leukemia

| SMILES | GI50 (SNB-75 CNS) | TGI (SNB-75 CNS) | GI50 (EKVX NSCLC) | TGI (EKVX NSCLC) | GI50 (SK-MEL-2 melanoma) | TGI (SK-MEL-2 melanoma) | GI50 (RPMI-8226 leukemia) | TGI (RPMI-8226 leukemia) | GI50 (NCI-H522 lung) | TGI (NCI-H522 lung) | GI50 (SF-268 CNS) | TGI (SF-268 CNS) | GI50 (HCC-2998 colon) | TGI (HCC-2998 colon) | GI50 (LOX IMVI melanoma) | TGI (LOX IMVI melanoma) | GI50 (UACC-257 melanoma) | TGI (UACC-257 melanoma) | GI50 (K-562 leukemia) | TGI (K-562 leukemia) |
| --- | --- | --- | --- | --- | --- | --- | --- | --- | --- | --- | --- | --- | --- | --- | --- | --- | --- | --- | --- | --- |
| COc1ncc(-c2nc3c(n2C(C)C)[C@H](c2ccc(Cl)cc2)N(c2cc(Cl)cn(C)c2=O)C3=O)c(OC)n1 | 30 µM | > 100 µM | 36.6 µM | > 100 µM | 46.3 µM | > 100 µM | 24.5 µM | 87.5 µM | 69.2 µM | > 100 µM | 71.5 µM | > 100 µM | 60.1 µM | > 100 µM | 11.2 µM | > 100 µM | 17.2 µM | 94.4 µM | – | – |
| C=C(CN1CCN(c2cccc(C(F)(F)F)c2)CC1)c1ccc(C(=O)Nc2ccccc2N)cc1 | – | – | 2.92 µM | 19.4 µM | 3.44 µM | 32.2 µM | 0.322 µM | 2.49 µM | 6.14 µM | > 16.1 µM | 1.43 µM | 10.8 µM | – | – | 0.56 µM | 6.25 µM | 0.762 µM | 17.8 µM | 0.185 µM | 8.27 µM |
| Cc1ccc(NC(=O)CC(=O)n2nc(-c3ccccc3)c(N=Nc3ccc(Cl)cc3)c2-c2ccccc2)cc1 | – | 70.9 µM | – | > 100 µM | – | > 100 µM | – | 47.8 µM | – | – | – | > 100 µM | – | > 100 µM | – | 29.9 µM | – | > 100 µM | – | 47.1 µM |
| CC12O[C@H](c3ccccc3)[C@H](c3ccccc3)N1C(=O)C1(C(=O)OCc3ccccc3)CC12 (stereo partly drawn) | – | > 100 µM | – | – | – | > 100 µM | – | – | – | > 100 µM | – | > 100 µM | – | > 100 µM | – | > 100 µM | – | > 100 µM | – | > 100 µM |
| NC1=NC(c2ccccc2)N=C(Nc2ccccc2)N1 (stereo not drawn) | 34.8 µM | > 100 µM | > 100 µM | > 100 µM | > 100 µM | > 100 µM | > 100 µM | > 100 µM | – | – | 55.1 µM | > 100 µM | – | – | > 100 µM | > 100 µM | > 100 µM | > 100 µM | > 100 µM | > 100 µM |
| C/C=C(\C)C(=O)O[C@@H]1C(O)[C@H]2OC(COC(=O)CCC(=O)CCCCCC[C@H](CCCCC)O[C@@H]3OC(C)[C@H](OC(C)=O)C(O)[C@H]3O2)[C@H]1OC(=O)/C=C/c1ccccc1 (stereo partly drawn) | < 0.01 µM | 0.747 µM | < 0.0267 µM | > 87.9 µM | 0.322 µM | 4.27 µM | < 0.01 µM | 9.35 µM | 0.0265 µM | 2.29 µM | 0.101 µM | 15.6 µM | 1.79 µM | > 100 µM | – | – | < 0.0109 µM | 1.04 µM | < 0.01 µM | > 100 µM |
| COc1cc(/C=C/C(=O)c2cc(F)c(Cl)cc2Cl)cc(OC)c1OC | 56.3 µM | > 100 µM | > 100 µM | > 100 µM | 15.8 µM | 58.7 µM | 15.2 µM | 52.9 µM | – | – | 68.9 µM | > 100 µM | 73 µM | > 100 µM | 25.1 µM | 91.2 µM | 42 µM | > 100 µM | 11.4 µM | 27.7 µM |
| COc1cc2c3c(n(CCN)c(=O)c2cc1OC)-c1cc2c(cc1C3=O)OCO2 | 0.143 µM | 2.43 µM | 1.59 µM | 3.97 µM | 3.22 µM | 10.5 µM | < 0.0159 µM | 0.303 µM | 0.771 µM | 6.57 µM | 0.749 µM | 3.18 µM | – | – | 0.235 µM | – | 3.84 µM | 11.2 µM | 0.0969 µM | > 100 µM |
| COc1cc(-c2oc3c(OC)c(OC)cc(O)c3c(=O)c2OC)ccc1O | 1.7 µM and > 5 µM | 8.54 µM and > 5 µM | – | > 50 µM | 2.52 µM and 6.91 µM | > 100 µM and 32.7 µM | – | – | – | 31.3 µM and > 50 µM | 34.4 µM and 15.3 µM | > 100 µM | > 100 µM and 31 µM | > 100 µM | 1.88 µM and 7.95 µM | > 100 µM and 36.3 µM | – | > 100 µM | – | > 50 µM |
| CCC(=O)OC1CCn2c1nc1c2C(=O)C(C)=C(N2CC2)C1=O (stereo not drawn) | 0.0223 µM | 0.0957 µM and 0.0544 µM | 0.305 µM | 1.04 µM and 0.504 µM | 0.038 µM | 0.1 µM and 0.117 µM | – | – | 0.0159 µM | 0.0404 µM and 0.0899 µM | 0.0309 µM | 1.22 µM and 0.254 µM | – | 0.214 µM and 0.18 µM | 0.0311 µM | 0.0886 µM and 0.243 µM | 0.0261 µM | 0.0629 µM and 0.152 µM | 0.128 µM and 0.739 µM | – |
| O=c1cccc(C#Cc2ccccc2)o1 | 42.3 µM | > 100 µM | 5.21 µM | 32.1 µM | 4.71 µM | > 33.9 µM | 0.698 µM | 12.1 µM | 4.06 µM | > 40.4 µM | 5.34 µM | > 96.7 µM | – | – | 7.89 µM | 30.1 µM | 7.74 µM | 22.4 µM | 40.4 µM | > 100 µM |
| Cc1ccc(NS(=O)(=O)c2cc(C(C)(C)C)ccc2OCCOCCOCCOc2ccc(C(C)(C)C)cc2S(=O)(=O)Nc2ccc(C)cc2)cc1 | – | > 100 µM | – | > 100 µM | – | > 100 µM | – | – | – | – | – | > 100 µM | – | > 100 µM | – | > 100 µM | – | > 100 µM | – | > 100 µM |
| Cc1ccc(S(=O)(=O)CNC(=S)CCCC(=S)NCS(=O)(=O)c2ccc(C)cc2)cc1 | – | > 100 µM | – | > 100 µM | – | – | – | > 100 µM | – | > 100 µM | – | > 100 µM | – | > 100 µM | – | 39.4 µM | – | > 100 µM | – | > 100 µM |
| COc1cccc(/C=C/C(=O)c2ccc(Cl)cc2Cl)c1OC | 18 µM | 33.8 µM | 13.6 µM | 31.8 µM | 4.58 µM | 17.4 µM | – | – | – | – | 12.9 µM | 41.5 µM | 14.5 µM | 27.7 µM | 2.64 µM | 6.88 µM | 11.2 µM | 23.2 µM | 2.39 µM | 5.72 µM |
| COC(=O)c1c2c(c(C)[n+]([O-])c1C)C(=O)C=C(NCc1cccc(OC)c1)C2=O | 1.64 µM | 3.01 µM | 1.01 µM | 2.26 µM | 1.15 µM | 2.78 µM | 0.848 µM | 4.29 µM | 0.429 µM | 2.24 µM | 1.26 µM | 4.21 µM | – | – | 0.249 µM | 1.44 µM | 0.254 µM | 0.786 µM | 0.37 µM | 6.51 µM |
| Cc1c(O)c(=O)ccn1C1OC(CO)C(O)C1O (stereo not drawn) | – | > 100 µM | – | > 100 µM | – | > 100 µM | – | > 100 µM | – | > 100 µM | – | > 100 µM | – | – | – | > 100 µM | – | > 100 µM | – | > 100 µM |
